# Laboratory results from patent publication US12612411B1, “Imidazopyrazine derivatives, process for preparation thereof, and their uses as luciferins” (INSTITUT PASTEUR, priority 2017, dated 2026).
# Tests used:
# nanoKAZ luciferase = target: T1, nanoKAZ luciferase (Oplophorus gracilirostris, UniProt Q9GV45, A31E/A60N/A81I/F95D/I117V/K70R/L54V/L99Q/M102K/N193R/P142E/Q151K/Q38R/Q45L/V71I/Y165I); assay: In vitro bioluminescence screening of imidazo[1,2-a]pyrazin-3(7H)-ones with nanoKAZ expressed in vitro (96-well luminometer, 2 h kinetic); format: biochemical; settings: furimazine = 1
# T1 construct: luciferase catalytic domain (nanoKAZ, 19 kDa) from the Oplophorus-derived luciferase; host or cells: cell-free: 1-Step Human Coupled IVT Kit, pT7CFE1-based vector
# T1 sequence (Q9GV45 other isoform, or with tags, fused parts or gaps with the stated changes): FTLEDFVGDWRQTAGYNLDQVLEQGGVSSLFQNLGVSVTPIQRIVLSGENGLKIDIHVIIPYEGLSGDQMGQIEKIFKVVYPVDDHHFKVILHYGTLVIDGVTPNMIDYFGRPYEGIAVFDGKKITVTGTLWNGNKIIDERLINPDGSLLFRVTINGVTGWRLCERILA
# Experimental: General protocol for the generation of solutions of imidazo[1,2-a]pyrazin-3(7H)-one Q by acidic hydrolysis of imidazo[1,2-a]pyrazin-3-yl acetate derivatives P. The considered acetate P (1 mg) was dissolved in DMSO (0.2 mL) and then diluted by adding a solution of acidic ethanol (0.3 ml) made from the addition of 37% hydrochloric acid (100 μl) on 100% ethanol (12 mL). This 0.5 mL solution was incubated at 50° C. for 2 hours to give a stock solution which was then stored at −80° C. […] Nota: these conditions are only adapted to the hydrolysis of the protecting group (as defined above) of the oxygen on position 2 of the imidazo[1,2-a]pyrazine ring system and not to the hydrolysis of any additional acetyl groups eventually present elsewhere on the substrate of this reaction.
# The representative bioluminescence curves shown in the FIG. 2 provided an assessment for furimazine (Q-1), 8-benzyl-2-(furan-2-ylmethyl)-6-(4-hydroxyphenyl)imidazo[1,2-a]pyrazin-3 (7/1)-one (Q-80), 8-(2-fluorobenzyl)-2-(furan-2-ylmethyl)-6-phenylimidazo[1,2-a]pyrazin-3(7H)-one (Q-84), and 8-(2-fluorobenzyl)-2-((5-methylfuran-2-yl)methyl)-6-phenylimidazo[1,2-a]pyrazin-3(7H)-one (Q-85) was obtained using a luciferase expressed in vitro as described in the following. The nanoKAZ DNA template was cloned into Thermo Scientific pT7CFE1-based vector and nanoKAZ was expressed using ThermoFisher Scientific 1-Step Human Coupled IVT Kit—DNA (ref. 88881) according to the manufacturer instructions. The resulting reaction mix was diluted 400 times in buffer (DPBS (Gibco)+0.1% (v/v) Tween 20) and conserved at −80° C. The screening of the imidazo[1,2-a]pyrazin-3(7H)-ones was performed in 96 well plates using 50 μL/well of a 1/20 dilution in DPBS (Gibco)+0.1% (v/v) Tween 20 of the nanoKAZ solution.
# To illustrate the bioluminescence properties improvement achieved for many of the imidazo[1,2-a]pyrazin-3(7H)-ones described here, four values are provided in Table 1: maximum intensity (V1), signal half-life (V2), area under the curve for ten minutes (V3), and area under the curve for two hours (V4), normalized using furimazine (Q-1) as a reference.
# The bioluminescence properties of the tested compounds are considered to be improved when at least one of the values V1-V4 is above 1, and when none of the V1-V4 values is 0.05 or below.
# By following the hydrolysis protocol described above, the following imidazo[1,2-a]pyrazin-3(7H)-ones luciferins Q were made in situ from the corresponding O-protected imidazo[1,2-a]pyrazines P and evaluated for their bioluminescence properties (maximum intensity (V1), signal half-life (V2), area under the curve for […], normalized using furimazine (Q-1) as a reference): […]
# [1] = cited from earlier work
# [2] = second table, luciferins made in situ from O-protected P
Structure (SMILES),"V1: maximum intensity, normalized using furimazine (Q-1) as a reference (nanoKAZ luciferase; Table 1)","V3: area under the curve for ten minutes, normalized using furimazine (Q-1) as a reference (nanoKAZ luciferase; Table 1)","V4: area under the curve for two hours, normalized using furimazine (Q-1) as a reference (nanoKAZ luciferase; Table 1)",storage stability ([1]; commercially available luciferins),permitted storage time at 4° C. ([1]; recommended storage conditions),"V3: area under the curve for 2 hours, normalized using furimazine (Q-1) as a reference (nanoKAZ luciferase; second table)","V4: area under the curve for ten minutes, normalized using furimazine (Q-1) as a reference (nanoKAZ luciferase; second table)","V1: maximum intensity, normalized using furimazine (Q-1) as a reference (nanoKAZ luciferase; [2])"
"O=c1c(Cc2ccc(O)cc2)nc2c(Cc3ccccc3)[nH]c(-c3ccc(O)cc3)cn1-2 [Q-86, 8-benzyl-2-(4-hydroxybenzyl)-6-(4-hydroxyphenyl)imidazo[1,2-a]pyrazin-3(7H)-one, reference compound]",0.09,0.08,0.07,very weak storage stability,up to two weeks only,–,–,–
"Cc1cccc(Cc2nc3c(Cc4cccc(F)c4)[nH]c(-c4ccccc4)cn-3c2=O)c1 [Q-100, 8-(3-fluorobenzyl)-2-(3-methylbenzyl)-6-phenylimidazo[1,2-a]pyrazin-3(7H)-one]",1.25,1.33,1.04,–,–,–,–,–
"Cc1ccc(Cc2nc3c(Cc4cccc(F)c4)[nH]c(-c4ccccc4F)cn-3c2=O)o1 [Q-105, 8-(3-fluorobenzyl)-6-(2-fluorophenyl)-2-((5-methylfuran-2-yl)methyl)imidazo[1,2-a]pyrazin-3(7H)-one]",–,–,–,–,–,2.01,1.72,2.04
"O=c1c(Cc2ccco2)nc2c(Cc3cccc(F)c3F)[nH]c(-c3ccccc3)cn1-2 [Q-107, 8-(2,3-difluorobenzyl)-2-(furan-2-ylmethyl)-6-phenylimidazo[1,2-a]pyrazin-3(7H)-one]",–,–,–,–,–,1.04,1.27,1.03
"Cc1ccc(Cc2nc3c(Cc4cccc(F)c4F)[nH]c(-c4ccccc4)cn-3c2=O)o1 [Q-108, 8-(2,3-difluorobenzyl)-2-((5-methylfuran-2-yl)methyl)-6-phenylimidazo[1,2-a]pyrazin-3(7H)-one]",–,–,–,–,–,3.09,2.1,3.15
"O=c1c(Cc2ccccc2)nc2c(Cc3cccc(F)c3F)[nH]c(-c3ccccc3)cn1-2 [Q-117, 2-benzyl-8-(2,3-difluorobenzyl)-6-phenylimidazo[1,2-a]pyrazin-3(7H)-one]",–,–,–,–,–,1.94,0.7,2.31
"Cc1ccc(Cc2nc3c(Cc4c(F)cccc4F)[nH]c(-c4ccccc4)cn-3c2=O)o1 [Q-121, 8-(2,6-difluorobenzyl)-2-((5-methylfuran-2-yl)methyl)-6-phenylimidazo[1,2-a]pyrazin-3(7H)-one]",–,–,–,–,–,1.43,1.37,1.41
"Cc1cc(Cc2nc3c(Cc4cccc(F)c4F)[nH]c(-c4ccccc4)cn-3c2=O)oc1C [Q-124, 8-(2,3-difluorobenzyl)-2-((4,5-dimethylfuran-2-yl)methyl)-6-phenylimidazo[1,2-a]pyrazin-3(7H)-one]",–,–,–,–,–,2.29,1.03,2.43
"CCc1ccc(Cc2nc3c(Cc4cccc(F)c4F)[nH]c(-c4ccccc4)cn-3c2=O)o1 [Q-127, 8-(2,3-difluorobenzyl)-2-((5-ethylfuran-2-yl)methyl)-6-phenylimidazo[1,2-a]pyrazin-3(7H)-one]",–,–,–,–,–,2.69,1.55,2.81
"CCc1ccc(Cc2nc3c(Cc4c(F)cccc4F)[nH]c(-c4ccccc4)cn-3c2=O)o1 [Q-129, 8-(2,6-difluorobenzyl)-2-((5-ethylfuran-2-yl)methyl)-6-phenylimidazo[1,2-a]pyrazin-3(7H)-one]",–,–,–,–,–,1.37,1.32,1.41
"Cc1cc(Cc2nc3c(Cc4ccccc4F)[nH]c(-c4ccccc4)cn-3c2=O)oc1C [Q-131, 2-((4,5-dimethylfuran-2-yl)methyl)-8-(2-fluorobenzyl)-6-phenylimidazo[1,2-a]pyrazin-3(7H)-one]",–,–,–,–,–,1.9,1.02,2.01
"Cc1cc(Cc2nc3c(Cc4cccc(F)c4)[nH]c(-c4ccccc4)cn-3c2=O)oc1C [Q-132, 2-((4,5-dimethylfuran-2-yl)methyl)-8-(3-fluorobenzyl)-6-phenylimidazo[1,2-a]pyrazin-3(7H)-one]",–,–,–,–,–,1.44,1,1.5
"CCCc1ccc(Cc2nc3c(Cc4ccccc4)[nH]c(-c4ccccc4)cn-3c2=O)o1 [Q-133, 8-benzyl-6-phenyl-2-((5-propylfuran-2-yl)methyl)imidazo[1,2-a]pyrazin-3(7H)-one]",–,–,–,–,–,1.23,1.33,1.26
"CCc1cc(Cc2nc3c(Cc4cccc(F)c4F)[nH]c(-c4ccccc4)cn-3c2=O)oc1C [Q-135, 8-(2,3-difluorobenzyl)-2-((4-ethyl-5-methylfuran-2-yl)methyl)-6-phenylimidazo[1,2-a]pyrazin-3(7H)-one]",–,–,–,–,–,0.51,1.19,1.26
"CCc1oc(Cc2nc3c(Cc4cccc(F)c4F)[nH]c(-c4ccccc4)cn-3c2=O)cc1C [Q-143, 8-(2,3-difluorobenzyl)-2-((5-ethyl-4-methylfuran-2-yl)methyl)-6-phenylimidazo[1,2-a]pyrazin-3(7H)-one]",–,–,–,–,–,0.39,1.34,1.43
"O=c1c(Cc2ccco2)nc2c(Cc3ccccc3)[nH]c(-c3cccc(O)c3)cn1-2 [Q-149, 8-benzyl-2-(furan-2-ylmethyl)-6-(3-hydroxyphenyl)imidazo[1,2-a]pyrazin-3(7H)-one]",–,–,–,–,–,0.85,1.05,1.12
